{
  "source": "paper PMC5667507",
  "about": "“A novel ^18F-labelled high affinity agent for PET imaging of the translocator protein” (Chemical Science, 2015)",
  "key": {"TSPO [1]": {"target": "TSPO", "parameters": "method as in PMID 20045646", "conditions": "printed in Fig. 2; cited from earlier work"}, "[2]": {"target": "T1, human serum albumin (HSA) (Homo sapiens, UniProt P02768)", "T1 construct": "purchased ChromTech HSA 5 µm (3.0 × 50 mm) column", "T1 sequence (P02768 25-609)": "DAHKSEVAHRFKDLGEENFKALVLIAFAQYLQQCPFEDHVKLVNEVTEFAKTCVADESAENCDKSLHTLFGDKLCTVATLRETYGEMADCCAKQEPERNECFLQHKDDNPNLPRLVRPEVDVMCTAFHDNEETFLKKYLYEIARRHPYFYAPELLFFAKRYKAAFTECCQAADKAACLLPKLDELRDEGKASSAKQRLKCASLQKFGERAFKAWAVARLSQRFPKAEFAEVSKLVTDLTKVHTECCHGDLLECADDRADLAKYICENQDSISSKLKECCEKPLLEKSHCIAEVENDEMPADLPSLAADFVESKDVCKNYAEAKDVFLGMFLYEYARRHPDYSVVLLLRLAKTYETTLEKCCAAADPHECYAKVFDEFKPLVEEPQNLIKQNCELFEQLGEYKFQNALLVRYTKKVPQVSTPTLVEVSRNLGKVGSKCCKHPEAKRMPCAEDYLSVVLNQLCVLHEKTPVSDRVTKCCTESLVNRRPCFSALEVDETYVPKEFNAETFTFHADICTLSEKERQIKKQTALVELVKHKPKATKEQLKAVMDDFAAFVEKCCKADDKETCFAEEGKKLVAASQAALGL", "assay": "Human serum albumin (HSA) chromatography for %PPB", "type": "in vitro ADME", "conditions": "human serum albumin (HSA) coated HPLC column, read-out: %PPB (percentage of plasma protein binding) (converted)"}, "TSPO [3]": {"target": "T2, TSPO (Rattus norvegicus, UniProt P16257)", "T2 construct": "Whole brains from male Sprague-Dawley rats (200–300 g) were obtained; from tissue; host or cells: whole brain of male Sprague-Dawley rats, washed membrane homogenate", "assay": "Competition binding assay, displacement of [3H]-PK11195 in rat brain homogenates", "conditions": "displacement of [3H]-PK11195, rat brain homogenates; mean ± SD of three independent experiments", "source_text": "Competition Binding Assays\n(6 pictures or pasted objects on this page, not shown here)"}, "[4]": {"assay": "Stability testing in phosphate buffered saline at 37 °C (HPLC)", "type": "physicochemical", "conditions": "for Purity of Compound (stability testing): 1:1 PBS/acetonitrile, 37 °C", "procedure": "The key physicochemical parameters of AB5186 6, permeability (P m), membrane partition coefficient (K m) and percentage of plasma protein binding (%PPB) were determined by high-performance liquid chromatography (HPLC) methods (Table 1).[23] […] As AB5186 6 contains a fluoroalkyl group, a potential alkylating agent, the stability of this compound was examined in simulated physiological conditions. […] The combination of a relatively strong C–F bond and the presence of bulky di-ortho-substituents impart a good level of stability.\n3-(Fluoromethyl)-4-phenylquinoline-2-N-diethylcarboxamide (6) (2 mg, […]) was dissolved in a 1:1 mixture of […] phosphate buffered saline and acetonitrile (2 mL) and incubated at 37 ° C. 5 µL of the solution was injected onto the HPLC system (conditions described as below in section 7) at various time points (0, 1, 2, 4, 6 and 24 h). The purity of the compound at these time points was detemined by measuring the area under the peaks of the resultant UV"}, "[5]": {"conditions": "used for HSA column calibration; ref literature (SI ref 3); cited from earlier work"}},
  "data": [
    {"compound": "3-iodomethylquinoline-2-carboxamide [compound 4]", "values": [
      {"measurement": "Ki", "setting": "TSPO [1]", "value": 12, "unit": "nM"}
    ]},
    {"compound": "4-(2-iodophenyl)quinoline-2-carboxamide [compound 5]", "values": [
      {"measurement": "Ki", "setting": "TSPO [1]", "value": 5.01, "unit": "nM"}
    ]},
    {"compound": "CCN(CC)C(=O)c1nc2ccccc2c(-c2ccccc2)c1CF", "note": "[AB5186 6, 3-(Fluoromethyl)-4-phenylquinoline-2-N-diethylcarboxamide]", "values": [
      {"measurement": "fraction unbound at 0.5 mg/mL", "setting": "[2]", "value": 0.103},
      {"measurement": "Ki", "setting": "TSPO [3]", "value": "2.8 ± 0.8", "unit": "nM"},
      {"measurement": "Purity of Compound (stability testing)", "setting": "[4]; time 0 h", "value": 98.81, "unit": "%"},
      {"measurement": "Purity of Compound (stability testing)", "setting": "[4]; time 1 h", "value": 98.75, "unit": "%"},
      {"measurement": "Purity of Compound (stability testing)", "setting": "[4]; time 2 h", "value": 98.76, "unit": "%"},
      {"measurement": "Purity of Compound (stability testing)", "setting": "[4]; time 4 h", "value": 98.80, "unit": "%"},
      {"measurement": "Purity of Compound (stability testing)", "setting": "[4]; time 6 h", "value": 98.78, "unit": "%"},
      {"measurement": "Purity of Compound (stability testing)", "setting": "[4]; time 24 h", "value": 91.94, "unit": "%"},
      {"measurement": "decomposition", "setting": "[4]; phosphate buffered saline pH 7.4, 37 °C, after 6 hours", "value": 0.03, "unit": "%"}
    ]},
    {"compound": "CCC(C)N(C)C(=O)c1cc2ccccc2c(-c2ccccc2Cl)n1", "note": "(stereo not drawn) [PK11195 1, reference compound]", "values": [
      {"measurement": "fraction unbound at 0.5 mg/mL", "setting": "[2]", "value": 0.085}
    ]},
    {"compound": "O=C1CN=C(c2ccccn2)c2cc(Br)ccc2N1", "note": "[bromazepam]", "values": [
      {"measurement": "%PPB (literature value of calibration standard)", "setting": "[5]", "value": 60.0, "unit": "%"}
    ]},
    {"compound": "CCCC1O[C@@H]2C[C@H]3[C@@H]4CCC5=CC(=O)C=C[C@]5(C)[C@H]4[C@@H](O)C[C@]3(C)[C@]2(C(=O)CO)O1", "note": "(stereo partly drawn) [budesonide]", "values": [
      {"measurement": "%PPB (literature value of calibration standard)", "setting": "[5]", "value": 88.0, "unit": "%"}
    ]},
    {"compound": "CNC(=C[N+](=O)[O-])NCCSCc1csc(CN(C)C)n1", "note": "[nizatidine]", "values": [
      {"measurement": "%PPB (literature value of calibration standard)", "setting": "[5]", "value": 35.0, "unit": "%"}
    ]}
  ]
}
